Test results as given in patent publication US8039514B2, “Sulfonamide compounds and use thereof” (Asahi Kasei Pharma Corporation, priority 2008, dated 2011).
pIC50: −log10 of the molar value.

Target: T1, human calcium-sensing receptor (CaSR) (Homo sapiens, UniProt P41180)
T1 construct: expressed in transfected cells
T1 sequence (P41180 20-1078): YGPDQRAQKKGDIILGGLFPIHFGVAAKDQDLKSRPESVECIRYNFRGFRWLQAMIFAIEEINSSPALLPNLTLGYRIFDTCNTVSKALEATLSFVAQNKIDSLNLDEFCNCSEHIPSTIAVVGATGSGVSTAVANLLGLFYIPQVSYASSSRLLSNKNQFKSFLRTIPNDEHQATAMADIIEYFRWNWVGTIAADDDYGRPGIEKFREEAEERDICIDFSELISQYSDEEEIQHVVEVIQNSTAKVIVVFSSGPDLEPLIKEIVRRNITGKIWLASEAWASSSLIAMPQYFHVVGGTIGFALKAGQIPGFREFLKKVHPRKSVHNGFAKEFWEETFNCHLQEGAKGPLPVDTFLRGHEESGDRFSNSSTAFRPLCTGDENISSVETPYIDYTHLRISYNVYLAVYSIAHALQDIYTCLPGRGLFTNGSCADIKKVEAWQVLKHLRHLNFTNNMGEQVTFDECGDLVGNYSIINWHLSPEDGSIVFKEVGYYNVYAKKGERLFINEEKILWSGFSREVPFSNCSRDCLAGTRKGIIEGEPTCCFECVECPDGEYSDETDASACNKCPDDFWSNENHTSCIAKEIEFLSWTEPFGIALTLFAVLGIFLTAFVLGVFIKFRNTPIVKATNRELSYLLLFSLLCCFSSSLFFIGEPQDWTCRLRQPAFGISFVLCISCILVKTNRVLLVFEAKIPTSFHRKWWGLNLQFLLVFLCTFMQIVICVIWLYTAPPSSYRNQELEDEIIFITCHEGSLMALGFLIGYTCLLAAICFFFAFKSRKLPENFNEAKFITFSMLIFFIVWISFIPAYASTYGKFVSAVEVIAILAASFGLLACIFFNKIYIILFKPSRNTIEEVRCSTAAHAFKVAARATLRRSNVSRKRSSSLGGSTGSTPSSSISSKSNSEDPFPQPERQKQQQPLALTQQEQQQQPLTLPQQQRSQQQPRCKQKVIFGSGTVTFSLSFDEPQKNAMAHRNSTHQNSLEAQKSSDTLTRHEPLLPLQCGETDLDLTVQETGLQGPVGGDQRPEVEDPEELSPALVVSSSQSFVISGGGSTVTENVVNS
Experiment: intracellular Ca assay, CaSR antagonist activity in HEK293/hCaSR cells
Assay type: cell-based
Settings: Fura2-AM, inhibition of response to calcium chloride ligand solution, read-out: IC50 values according to the intracellular Ca assay (CaSR antagonist activity)
Description: HEK293 cells stably expressing human calcium-sensing receptor (CaSR) (termed HEK293/hCaSR cells) were used. HEK293/hCaSR cells were cultured in a culture medium [DMEM medium containing 0.5 mg/mL Geneticin, 50 Unit/mL penicillin, 50 μg/mL streptomycin and 10% fetal bovine serum (FBS), all manufactured by Invitrogen] to semiconfluent in an incubator at 37° C. under 5% carbon dioxide atmosphere.
Cultured cells were washed with phosphate buffered saline (PBS(−), manufactured by Dainippon Sumitomo Pharmaceutical Company) which had been prewarmed to 37° C., added with PBS(−) containing 10 mM ethylenediamine tetraacetic acid (EDTA), and then incubated in an incubator at 37° C. for 10 minutes. After adding the culture medium to separate the cells, cell suspension was transferred to a centrifuge tube. Cells were collected by centrifuge at 1,500 rpm for 3 minutes, and resuspended in Ca assay buffer [20 mM HEPES buffer (pH 7.4), 115 mM sodium chloride, 5.4 mM potassium chloride, 0.8 mM magnesium chloride, 0.8 mM calcium chloride, 13.8 mM D(+)-glucose (all manufactured by Wako Pure Chemicals) and 0.1% bovine serum albumin (manufactured by SIGMA)] containing 0.2% Pluronic F-127 (manufactured by Molecular Probes) and […] Fura2-AM (manufactured by DOJINDO LABORATORIES) to obtain a cell suspension of 5×10^6 cells/mL. After incubating at 37° C. for 30 minutes, the cells were washed twice with the Ca assay buffer and suspended in the same buffer to obtain a cell suspension of 1×10^6 cells/60 μL. 60 μL of the cell suspension was aliquoted to each well of a 96 well UV microplate (manufactured by Corning Co.) to give a cell plate.
The test compound was diluted with the Ca assay buffer to five times the final concentration and then 80 μL of the diluted compound was applied to each well of a 96 well round bottomed microplate (manufactured by Corning Co.) to give a sample plate. 80 μL of the Ca assay buffer containing 7.5 mM calcium chloride (i.e., ligand solution) was applied to each well of a 96 well round bottomed microplate to give a ligand plate. Then, thus prepared sample plate, ligand plate, and the cell plate were placed in Functional Drug Screening System (FDSS) 4000 (manufactured by Hamamatsu Photonics K.K.) which had been preswitched on and prewarmed to 37° C. Measurements were then carried out as follows. After incubating the cell plate for 180 seconds, fluorescence intensity was measured every two seconds (excitation wavelength; 340 nm and 380 nm, measurement wavelength; 500 nm). After the measurement for 40 seconds, 20 μL of the test compound solution from the sample plate was added to the cell plate, followed by continuous measurement for 160 seconds. Then, 20 μL of the ligand solution from the ligand plate was added to the cell plate, followed by continuous measurement for 100 seconds.
Amount of change in intracellular Ca concentration is indicated as a peak height of the ratio of the fluorescence intensity with excitation of 340 nm and 380 nm (i.e., fluorescence intensity with excitation at 340 nm/fluorescence intensity with excitation at 380 nm) that is obtained from the difference between the maximum ratio after adding the ligand solution and the ratio before adding the ligand solution. Further, when the peak height obtained from the Ca assay buffer containing no test compound has inhibition ratio of 0% while the peak height obtained from the Ca assay buffer containing no calcium chloride as a ligand solution has inhibition ratio of 100%, inhibition ratio for each test compound (i.e., CaSR antagonist activity) was calculated.

pIC50	Structure (SMILES)
6.00 to 6.52	CN(C[C@H](O)CNC(C)(C)Cc1ccc2ccccc2c1)S(=O)(=O)c1ccc(-c2cc(C(=O)O)cc([N+](=O)[O-])c2)cc1 [Exp. 3-40, (R)-4′-(N-(2-hydroxy-3-(2-methyl-1-(naphthalen-2-yl)propan-2-ylamino)propyl)-N-methylsulfamoyl)-5-nitrobiphenyl-3-carboxylic acid]
5.52 to 6.00	CN(C[C@H](O)CNC(C)(C)Cc1ccc2ccccc2c1)S(=O)(=O)c1ccc(-c2ccc(NC(=O)CCC(=O)O)cc2)cc1 [Exp. 3-43, (R)-4-(4′-(N-(2-hydroxy-3-(2-methyl-1-(naphthalen-2-yl)propan-2-ylamino)propyl)-N-methylsulfamoyl)biphenyl-4-ylamino)-4-oxobutanoic acid]
5.52 to 6.00	CN(C[C@H](O)CNC(C)(C)Cc1ccc2ccccc2c1)S(=O)(=O)c1ccc(-c2ccccc2C=CC(=O)O)cc1 [Exp. 3-44, (R)-3-(4′-(N-(2-hydroxy-3-(2-methyl-1-(naphthalen-2-yl)propan-2-ylamino)propyl)-N-methylsulfamoyl)biphenyl-2-yl)acrylic acid]
6.00 to 6.52	CN(C[C@H](O)CNC(C)(C)Cc1ccc2ccccc2c1)S(=O)(=O)c1ccc(-c2ccc(C(=O)O)c(O)c2)cc1 [Exp. 3-46, (R)-3-hydroxy-4′-(N-(2-hydroxy-3-(2-methyl-1-(naphthalen-2-yl)propan-2-ylamino)propyl)-N-methylsulfamoyl)biphenyl-4-carboxylic acid]
6.00 to 6.52	CN(C[C@H](O)CNC(C)(C)Cc1ccc2ccccc2c1)S(=O)(=O)c1ccc(-c2ccc(SCC(=O)O)cc2)cc1 [Exp. 3-47, (R)-2-(4′-(N-(2-hydroxy-3-(2-methyl-1-(naphthalen-2-yl)propan-2-ylamino)propyl)-N-methylsulfamoyl)biphenyl-4-ylthio)acetic acid]
≥ 6.52	CN(C[C@H](O)CNC(C)(C)Cc1ccc2ccccc2c1)S(=O)(=O)c1ccc(-c2cc(F)c(C(=O)O)c(F)c2)cc1 [Exp. 3-48, (R)-3,5-difluoro-4′-(N-(2-hydroxy-3-(2-methyl-1-(naphthalen-2-yl)propan-2-ylamino)propyl)-N-methylsulfamoyl)biphenyl-4-carboxylic acid]
≥ 6.52	CN(C[C@H](O)CNC(C)(C)CC1Cc2ccccc2C1)S(=O)(=O)c1cccc(-c2ccc(C(=O)O)cc2)c1 [Exp. 3-50, (R)-3′-(N-(3-(1-(2,3-dihydro-1H-inden-2-yl)-2-methylpropan-2-ylamino)-2-hydroxypropyl)-N-methylsulfamoyl)biphenyl-4-carboxylic acid]
6.00 to 6.52	Cc1ccc(-c2cccc(S(=O)(=O)N(C)C[C@H](O)CNC(C)(C)CC3Cc4ccccc4C3)c2)cc1C(=O)O [Exp. 3-51, (R)-3′-(N-(3-(1-(2,3-dihydro-1H-inden-2-yl)-2-methylpropan-2-ylamino)-2-hydroxypropyl)-N-methylsulfamoyl)-4-methylbiphenyl-3-carboxylic acid]
6.00 to 6.52	Cc1cc(-c2cccc(S(=O)(=O)N(C)C[C@H](O)CNC(C)(C)CC3Cc4ccccc4C3)c2)ccc1C(=O)O [Exp. 3-52, (R)-3′-(N-(3-(1-(2,3-dihydro-1H-inden-2-yl)-2-methylpropan-2-ylamino)-2-hydroxypropyl)-N-methylsulfamoyl)-3-methylbiphenyl-4-carboxylic acid]
≥ 6.52	CN(C[C@H](O)CNC(C)(C)CC1Cc2ccccc2C1)S(=O)(=O)c1cccc(-c2ccc(C(=O)O)c(F)c2)c1 [Exp. 3-53, (R)-3′-(N-(3-(1-(2,3-dihydro-1H-inden-2-yl)-2-methylpropan-2-ylamino)-2-hydroxypropyl)-N-methylsulfamoyl)-3-fluorobiphenyl-4-carboxylic acid]
≥ 6.52	CN(C[C@H](O)CNC(C)(C)CC1Cc2ccccc2C1)S(=O)(=O)c1cccc(-c2ccc(C(=O)O)c(Cl)c2)c1 [Exp. 3-54, (R)-3-chloro-3′-(N-(3-(1-(2,3-dihydro-1H-inden-2-yl)-2-methylpropan-2-ylamino)-2-hydroxypropyl)-N-methylsulfamoyl)biphenyl-4-carboxylic acid]
≥ 6.52	CN(C[C@H](O)CNC(C)(C)CC1Cc2ccccc2C1)S(=O)(=O)c1cccc(-c2ccc(C(=O)O)cc2F)c1 [Exp. 3-55, (R)-3′-(N-(3-(1-(2,3-dihydro-1H-inden-2-yl)-2-methylpropan-2-ylamino)-2-hydroxypropyl)-N-methylsulfamoyl)-2-fluorobiphenyl-4-carboxylic acid]
6.00 to 6.52	CN(C[C@H](O)CNC(C)(C)CC1Cc2ccccc2C1)S(=O)(=O)c1cccc(-c2ccc(C=CC(=O)O)cc2)c1 [Exp. 3-56, (R)-3-(3′-(N-(3-(1-(2,3-dihydro-1H-inden-2-yl)-2-methylpropan-2-ylamino)-2-hydroxypropyl)-N-methylsulfamoyl)biphenyl-4-yl)acrylic acid]
≥ 6.52	CN(C[C@H](O)CNC(C)(C)CC1Cc2ccccc2C1)S(=O)(=O)c1cccc(-c2cccc(C=CC(=O)O)c2)c1 [Exp. 3-58, (R)-3-(3′-(N-(3-(1-(2,3-dihydro-1H-inden-2-yl)-2-methylpropan-2-ylamino)-2-hydroxypropyl)-N-methylsulfamoyl)biphenyl-3-yl)acrylic acid]
≥ 6.52	CN(C[C@H](O)CNC(C)(C)CC1Cc2ccccc2C1)S(=O)(=O)c1cccc(-c2ccc(NC(=O)CCC(=O)O)cc2)c1 [Exp. 3-59, (R)-4-(3′-(N-(3-(1-(2,3-dihydro-1H-inden-2-yl)-2-methylpropan-2-ylamino)-2-hydroxypropyl)-N-methylsulfamoyl)biphenyl-4-ylamino)-4-oxobutanoic acid]
≥ 6.52	CN(C[C@H](O)CNC(C)(C)CC1Cc2ccccc2C1)S(=O)(=O)c1cccc(-c2cc(F)cc(C(=O)O)c2)c1 [Exp. 3-60, (R)-3′-(N-(3-(1-(2,3-dihydro-1H-inden-2-yl)-2-methylpropan-2-ylamino)-2-hydroxypropyl)-N-methylsulfamoyl)-5-fluorobiphenyl-3-carboxylic acid]
5.52 to 6.00	Cc1ccc(CC(C)(C)NC[C@@H](O)CN(C)S(=O)(=O)c2cccc(-c3cccc(C(=O)O)c3)c2)cc1F [Exp. 3-63, (R)-3′-(N-(3-(1-(3-fluoro-4-methylphenyl)-2-methylpropan-2-ylamino)-2-hydroxypropyl)-N-methylsulfamoyl)biphenyl-3-carboxylic acid]
